{"source": "patent US20180200208A1", "about": "“COMPOSITIONS FOR IMPROVING OR MAINTAINING MYOCARDIAL FUNCTION” (RepoCeuticals ApS, priority 2015, published 2018)", "origin": "cited, not measured here", "key": {"recombinant MT1 receptor": {"target": "recombinant MT1 receptor (Homo sapiens, UniProt P48039)", "sequence (P48039 whole entry)": "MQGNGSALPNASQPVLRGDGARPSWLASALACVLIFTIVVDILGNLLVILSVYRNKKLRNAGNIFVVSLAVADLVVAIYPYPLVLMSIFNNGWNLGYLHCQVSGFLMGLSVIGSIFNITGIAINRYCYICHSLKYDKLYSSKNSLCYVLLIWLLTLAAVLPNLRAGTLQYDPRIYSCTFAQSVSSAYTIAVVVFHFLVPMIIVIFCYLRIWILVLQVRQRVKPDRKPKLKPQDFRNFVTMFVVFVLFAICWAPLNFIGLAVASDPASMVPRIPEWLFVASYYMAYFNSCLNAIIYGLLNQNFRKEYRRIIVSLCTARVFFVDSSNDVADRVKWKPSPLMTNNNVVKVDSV", "conditions": "relative to melatonin"}, "recombinant MT2 receptor": {"target": "T1, recombinant MT2 receptor (Homo sapiens, UniProt P49286)", "T1 sequence (P49286 1-362)": "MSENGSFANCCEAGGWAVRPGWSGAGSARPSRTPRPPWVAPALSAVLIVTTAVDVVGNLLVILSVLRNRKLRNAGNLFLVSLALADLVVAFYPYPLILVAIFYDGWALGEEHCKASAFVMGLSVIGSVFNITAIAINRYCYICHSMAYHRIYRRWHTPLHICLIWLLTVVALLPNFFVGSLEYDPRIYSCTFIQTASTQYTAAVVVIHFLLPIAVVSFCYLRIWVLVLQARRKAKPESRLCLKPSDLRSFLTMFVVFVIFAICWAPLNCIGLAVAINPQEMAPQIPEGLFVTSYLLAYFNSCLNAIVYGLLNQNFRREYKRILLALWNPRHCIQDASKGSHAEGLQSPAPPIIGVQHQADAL", "conditions": "relative to melatonin"}, "[1]": {"conditions": "at 2-8° C."}, "[2]": {"system": "patients with primary sleep disorders", "conditions": "oral doses of up to 5 mg"}}, "data": [{"smiles": "COc1cc2c(CCNC(C)=O)c[nH]c2cc1O", "note": "[6-OHM, 6-hydroxymelatonin]", "values": [{"measurement": "affinity for recombinant MT1 receptor as % of that of melatonin", "setting": "recombinant MT1 receptor", "result": 20, "unit": "%"}, {"measurement": "affinity for recombinant MT2 receptor as % of that of melatonin", "setting": "recombinant MT2 receptor", "result": 13, "unit": "%"}]}, {"smiles": "COc1ccc(NC=O)c(C(=O)CCNC(C)=O)c1", "note": "[AFMK, N^1-acetyl-N^2-formyl-5-methoxykynuramine]", "values": [{"measurement": "solubility in DMSO", "result": "soluble in DMSO"}, {"measurement": "solubility in water", "result": "insoluble in water"}, {"measurement": "long-term stability", "setting": "[1]", "result": "good long-term stability"}]}, {"smiles": "COC1=C(OC)C(=O)C(C/C=C(\\C)CC/C=C(\\C)CC/C=C(\\C)CC/C=C(\\C)CC/C=C(\\C)CC/C=C(\\C)CC/C=C(\\C)CC/C=C(\\C)CC/C=C(\\C)CCC=C(C)C)=C(C)C1=O", "note": "[Coenzyme Q10]", "values": [{"measurement": "solubility in ethanol, dimethyl sulfoxide and various oils", "result": "can be dissolved"}, {"measurement": "solubility in water", "result": "almost water-insoluble"}]}, {"smiles": "COc1ccc2[nH]cc(CCNC(C)=O)c2c1", "note": "[Melatonin, N-acetyl-5-methoxytryptamine]", "values": [{"measurement": "solubility in DMSO", "result": "soluble in DMSO"}, {"measurement": "solubility in water", "result": "insoluble in water"}, {"measurement": "increase of sleep duration (average)", "setting": "[2]", "result": "7 to 8", "unit": "min"}, {"measurement": "reduction of sleep latency (average)", "setting": "[2]", "result": "7 to 8", "unit": "min"}]}, {"smiles": "CC(=O)NCCc1c[nH]c2ccc(O)cc12", "note": "[N-acetylserotonin]", "values": [{"measurement": "affinity for recombinant MT1 receptor as % of that of melatonin", "setting": "recombinant MT1 receptor", "result": 0.14, "unit": "%"}, {"measurement": "affinity for recombinant MT2 receptor as % of that of melatonin", "setting": "recombinant MT2 receptor", "result": 0.22, "unit": "%"}]}, {"smiles": "O=C1C[C@@H](c2ccc(O)cc2)Oc2cc(O)cc(O)c21", "note": "[Naringenin, naringenin]", "values": [{"measurement": "solubility in ethanol, dimethyl sulfoxide and various oils", "result": "readily soluble"}, {"measurement": "solubility in water", "result": "almost insoluble in water"}]}, {"smiles": "Oc1ccc(C=Cc2cc(O)cc(O)c2)cc1", "note": "[Resveratrol, resveratrol]", "values": [{"measurement": "solubility in ethanol, dimethyl sulfoxide and various oils", "result": "readily soluble"}, {"measurement": "solubility in water", "result": "almost insoluble in water"}]}]}
